This assay concerns the target hLPAR1 (human lysophosphatidic acid receptor 1, Accession No.: NM_001401.4) (Homo sapiens, UniProt Q92633). Nature of the assay: cell-based. Conditions: FLIPR method, CHO-K1 cells overexpressing hLPAR1. The procedure: The antagonist properties of the compounds in the present disclosure were determined using the FLIPR (Fluorometric Imaging Plate Reader) method in CHO-K1 cells (Chinese Hamster Ovary cells K1, ATCC) overexpressing hLPAR1 (human lysophosphatidic acid receptor 1, Accession No.: NM_001401.4).
CHO-K1 cells stably expressing hLPAR1 were placed in a cell culture incubator at 37°C with 5% CO2 and cultured in F-12 medium containing 10% FBS (fetal bovine serum, Gibco, 10099-141), 1% penicillin-streptomycin (Gibco, 15140-122), and 0.4 mg/mL Hygromycin B (Gibco, 10687010). 18-24 hours before the FLIPR experiment, the cells were seeded into a 96-well plate at a density of 250,000 cells/mL (25,000 cells/well) and incubated overnight in the cell culture incubator. On the day of the experiment, the medium was removed, and the cells were washed with FLIPR buffer (2.5 mM probenecid (Thermo, P36400), 1.3 mM CaCl2, 3.3 mM Na2CO3, 1 mM MgSO4, 20 mM HEPES (Invitrogen, 15630080), 1× HBSS (Invitrogen, 14065056), 0.1% BSA (BioSharp, 70080030)). 75 µL of […] Fluo-4 AM fluorescent dye (Thermo, F14202) was added to each well and incubated for 1.0 hour at 37°C for dye loading. The 96-well plate was then washed once with buffer, and 50 µL of buffer containing the test compound or vehicle was added to each well, followed by incubation at room temperature for 30 min. The cell plate was then placed into the FLIPR for baseline fluorescence measurement (excitation wavelength at 485 nm, emission wavelength at 525 to 535 nm). Subsequently, 50 µL/well of agonist (final concentration 1 µM oleoyl-L-α-lysophosphatidic acid sodium salt (Sigma, L7260)) or vehicle (ultrapure water) was added, and fluorescence values were measured at 1-second intervals for 2 min. Finally, the output fluorescence counts were analyzed using GraphPad Prism 9.0 software log(inhibitor) vs. response--Variable slope (four parameters) equation to calculate IC50 values.
Table 1: Inhibitory activity data of compounds against LPAR1

The mark [1] stands for this setting: Table 1, read-out: LPAR1 inhibitory activity IC50.
Where [2] appears, read: LPAR1 inhibitory activity IC50, Table 1.

This is an account of results in EP4755881A1 (Wuhan Createrna Science and Technology Co., Ltd., priority 2023, dated 2025).

What is called pIC50 is −log10 of the IC50, conventionally taken in molar units.

pIC50: −log10 of the molar value. Where two headings read alike, the source gives them in different places.

Chain of hLPAR1 (human lysophosphatidic acid receptor 1, Accession No.: NM_001401.4) (Q92633 whole entry): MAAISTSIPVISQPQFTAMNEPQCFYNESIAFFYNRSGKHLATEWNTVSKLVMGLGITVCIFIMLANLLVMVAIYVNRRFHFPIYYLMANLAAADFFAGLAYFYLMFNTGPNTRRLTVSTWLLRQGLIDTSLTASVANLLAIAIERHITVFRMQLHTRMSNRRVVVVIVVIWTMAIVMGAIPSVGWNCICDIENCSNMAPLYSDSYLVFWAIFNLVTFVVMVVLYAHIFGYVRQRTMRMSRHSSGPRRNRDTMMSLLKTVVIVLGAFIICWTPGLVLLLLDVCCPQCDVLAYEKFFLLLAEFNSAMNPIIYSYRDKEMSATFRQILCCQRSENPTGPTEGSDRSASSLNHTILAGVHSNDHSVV

For the compound `Cc1nc(-c2nnn(C)c2NC(=O)O[C@H](C)c2ccccc2)ccc1C#C[C@@H]1CCCC[C@H]1C(=O)O` (mixture of isomers) [027-A, trans-2-((2-methyl-6-(1-methyl-5-((((R)-1-phenylethoxy)carbonyl)amino)-1H-1,2,3-triazol-4-yl)pyridin-3-yl)ethynyl)cyclohexane-1-carboxylic acid], the negative logarithm of the IC50 (pIC50) under setting [1] was 8.59. For the compound `Cc1nc(-c2nnn(C)c2NC(=O)O[C@H](C)c2ccccc2)ccc1C#C[C@@H]1CCCC[C@H]1C(=O)O` (mixture of isomers) [027-B, trans-2-((2-methyl-6-(1-methyl-5-((((R)-1-phenylethoxy)carbonyl)amino)-1H-1,2,3-triazol-4-yl)pyridin-3-yl)ethynyl)cyclohexane-1-carboxylic acid], the negative logarithm of the IC50 (pIC50) under setting [1] is 7.31. Same read-out and setting: as for `Cc1nc(-c2nnn(C)c2NC(=O)O[C@H](C)c2ccccc2F)ccc1C#C[C@@H]1CCCC[C@H]1C(=O)O` (mixture of isomers) [028-A, trans-2-((6-(5-((((R)-1-(2-fluorophenyl)ethoxy)carbonyl)amino)-1-methyl-1H-1,2,3-triazol-4-yl)-2-methylpyridin-3-yl)ethynyl)cyclohexane-1-carboxylic acid], the figure is 7.75; as for `Cc1nc(-c2nnn(C)c2NC(=O)O[C@H](C)c2ccccc2F)ccc1C#C[C@@H]1CCCC[C@H]1C(=O)O` (mixture of isomers) [028-B, trans-2-((6-(5-((((R)-1-(2-fluorophenyl)ethoxy)carbonyl)amino)-1-methyl-1H-1,2,3-triazol-4-yl)-2-methylpyridin-3-yl)ethynyl)cyclohexane-1-carboxylic acid], 7.22; as for `Cc1nc(-c2nnn(C)c2NC(=O)O[C@H](C)c2ccccc2Cl)ccc1C#C[C@@H]1CCCC[C@H]1C(=O)O` (mixture of isomers) [031-A, trans-2-((6-(5-((((R)-1-(2-chlorophenyl)ethoxy)carbonyl)amino)-1-methyl-1H-1,2,3-triazol-4-yl)-2-methylpyridin-3-yl)ethynyl)cyclohexane-1-carboxylic acid], 9.22. `Cc1nc(-c2nnn(C)c2NC(=O)O[C@H](C)c2ccccc2Cl)ccc1C#C[C@@H]1CCCC[C@H]1C(=O)O` (mixture of isomers) [031-B, trans-2-((6-(5-((((R)-1-(2-chlorophenyl)ethoxy)carbonyl)amino)-1-methyl-1H-1,2,3-triazol-4-yl)-2-methylpyridin-3-yl)ethynyl)cyclohexane-1-carboxylic acid]: under setting [1], the negative-log IC50 (pIC50) is 9.70. Consider `CCC(F)(F)[C@@H](C)OC(=O)Nc1c(-c2ccc(C#C[C@@H]3CC[C@H]3C(=O)O)c(C)n2)nnn1C` (mixture of isomers) [212-A, trans-2-((6-(5-(((((R)-3,3-difluoropentan-2-yl)oxy)carbonyl)amino)-1-methyl-1H-1,2,3-triazol-4-yl)-2-methylpyridin-3-yl)ethynyl)cyclobutane-1-carboxylic acid], for which the negative-log IC50 (pIC50) under setting [1] is 7.38. In the case of `Cc1nc(-c2nnn(C)c2NC(=O)O[C@H](C)CC(C)(F)F)ccc1C#C[C@@H]1CC[C@H]1C(=O)O` (mixture of isomers) [213-A, trans-2-((6-(5-(((((R)-4,4-difluoropentan-2-yl)oxy)carbonyl)amino)-1-methyl-1H-1,2,3-triazol-4-yl)-2-methylpyridin-3-yl)ethynyl)cyclobutane-1-carboxylic acid], the negative logarithm of the IC50 (pIC50) under setting [1] is 7.32. For `CCC(F)(F)[C@@H](C)OC(=O)Nc1c(-c2ccc(C#C[C@@H]3CCC[C@H]3C(=O)O)c(C)n2)nnn1C` (mixture of isomers) [219-A, trans-2-((6-(5-(((((R)-3,3-difluoropentan-2-yl)oxy)carbonyl)amino)-1-methyl-1H-1,2,3-triazol-4-yl)-2-methylpyridin-3-yl)ethynyl)cyclopentane-1-carboxylic acid], under setting [1], the negative-log IC50 (pIC50) was 8.48. In the case of `Cc1nc(-c2nnn(C)c2NC(=O)O[C@H](C)CC(C)(C)F)ccc1C#C[C@@H]1CCC[C@H]1C(=O)O` (mixture of isomers) [244-A, trans-2-((6-(5-(((((R)-4-fluoro-4-methylpentan-2-yl)oxy)carbonyl)amino)-1-methyl-1H-1,2,3-triazol-4-yl)-2-methylpyridin-3-yl)ethynyl)cyclopentane-1-carboxylic acid], the negative logarithm of the IC50 (pIC50) under setting [1] is 7.70. In the case of `Cc1nc(-c2nnn(C)c2NC(=O)O[C@H](C)CC2CC2)ccc1C#C[C@@H]1CC(F)(F)C[C@H]1C(=O)O` (mixture of isomers) [compound 205, trans-2-((6-(5-(((((R)-1-cyclopropylpropan-2-yl)oxy)carbonyl)amino)-1-methyl-1H-1,2,3-triazol-4-yl)-2-methylpyridin-3-yl)ethynyl)-4,4-difluorocyclopentane-1-carboxylic acid], under setting [1], the pIC50 was 8.51. As for `CCCCN(C)C(=O)OCc1c(-c2ccc(C#C[C@@H]3CC(F)(F)C[C@H]3C(=O)O)c(C)n2)nnn1C` (racemic) [compound 252], under setting [1], the pIC50 was 7.52.

On to `Cc1nc(-c2nnn(C)c2NC(=O)OC(C)CCCF)ccc1C#CC1(CC(=O)O)CC1` (racemic) [compound 280], for which the negative logarithm of the IC50 (pIC50) (read-out: LPAR1 inhibitory activity IC50, Table 1) is 7.12. Consider `Cc1nc(-c2nnn(C)c2COC(=O)N(C)CC2CCC2)ccc1C#CC1CC(F)(F)CC1C(=O)O` (racemic) [compound 362], for which the negative-log IC50 (pIC50) under setting [1] is 7.69. On to `Cc1nc(-c2nnn(C)c2NC(=O)O[C@H](C)CC(C)(F)F)ccc1C#C[C@@H]1CCC[C@H]1C(=O)O` (single isomer, unassigned) [246-A], for which the pIC50 under setting [2] was 7.74.

As for `Cc1nc(-c2nnn(C)c2NC(=O)OC(C)CC2CC2)ccc1C#CC1CCC1C(=O)O` (single isomer, unassigned) [248-B], the pIC50 under setting [1] was 7.72. Regarding `Cc1nc(-c2nnn(C)c2NC(=O)OC(C)CC(C)(C)F)ccc1C#CC1CCC1C(=O)O` (single isomer, unassigned) [306-A], the pIC50 under setting [1] was 7.30. For `Cc1nc(-c2nnn(C)c2NC(=O)OC(C)CC(C)(C)F)ccc1C#CC1CCC1C(=O)O` (single isomer, unassigned) [306-B], the pIC50 under setting [1] was 7.27. Still for that read-out and setting: as for `CCC[C@@H](C)OC(=O)Nc1c(-c2ccc(C#CC3(CC(=O)O)CC3)c(C)n2)nnn1C` [010-A], the figure is 7.34. With `Cc1nc(-c2nnn(C)c2NC(=O)OC(C)C2CCC2)ccc1C#CC1(CC(=O)O)CC1` (stereo not drawn) [032-A, 2-(1-((6-(5-(((1-cyclobutylethoxy)carbonyl)amino)-1-methyl-1H-1,2,3-triazol-4-yl)-2-methylpyridin-3-yl)ethynyl)cyclopropyl)acetic acid], the negative logarithm of the IC50 (pIC50) under setting [1] was 9.22. The same measure, in the same setting: as for `Cc1nc(-c2nnn(C)c2NC(=O)OC(C)C2CCCC2)ccc1C#CC1(CC(=O)O)CC1` (stereo not drawn) [092', 2-(1-((6-(5-(((1-cyclopentylethoxy)carbonyl)amino)-1-methyl-1H-1,2,3-triazol-4-yl)-2-methylpyridin-3-yl)ethynyl)cyclopropyl)acetic acid], the figure is 7.73.

In the case of `CCC(F)(F)[C@@H](C)OC(=O)Nc1c(-c2ccc(C#CC3(CC(=O)O)CC3)c(C)n2)nnn1C` [207', (R)-2-(1-((6-(5-((((3,3-difluoropentan-2-yl)oxy)carbonyl)amino)-1-methyl-1H-1,2,3-triazol-4-yl)-2-methylpyridin-3-yl)ethynyl)cyclopropyl)acetic acid], the negative-log IC50 (pIC50) under setting [1] is 7.69. On the same count and under the same terms, as for `Cc1nc(-c2nnn(C)c2NC(=O)OC(C)C2CCC2)ccc1C#CC1CC(F)(F)CC1C(=O)O` (stereo not drawn) [242-A], the figure is 8.15. For `Cc1nc(-c2nnn(C)c2NC(=O)O[C@H](C)C23CC(C2)C3)ccc1C#CC1(CC(=O)O)CC1` [260-B], under setting [2], the negative logarithm of the IC50 (pIC50) is 7.76. On to `CCCCN(C)C(=O)OCc1c(-c2ccc(C#CC3(CC(=O)O)CC3)c(C)n2)nnn1C` [compound 004, 2-(1-((6-(5-(((butyl(methyl)carbamoyl)oxy)methyl)-1-methyl-1H-1,2,3-triazol-4-yl)-2-methylpyridin-3-yl)ethynyl)cyclopropyl)acetic acid], for which the pIC50 under setting [1] was 7.18. Take `Cc1nc(-c2cnn(C)c2NC(=O)O[C@H](C)c2ccccc2Cl)ccc1C#CC1(CC(=O)O)CC1` [compound 005, (R)-2-(1-((6-(5-(((1-(2-chlorophenyl)ethoxy)carbonyl)amino)-1-methyl-1H-pyrazol-4-yl)-2-methylpyridin-3-yl)ethynyl)cyclopropyl)acetic acid]: the pIC50 under setting [1] is 7.65. The same measure, in the same setting: the same measure for `Cc1nc(-n2nnc(C)c2NC(=O)O[C@H](C)c2ccccc2Cl)ccc1C#CC1(CC(=O)O)CC1` [compound 006, (R)-2-(1-((6-(5-(((1-(2-chlorophenyl)ethoxy)carbonyl)amino)-4-methyl-1H-1,2,3-triazol-1-yl)-2-methylpyridin-3-yl)ethynyl)cyclopropyl)acetic acid]: 7.38.
